In assay [1] the test system is M. hyorhinis ATCC 25021. Kind of assay: MIC against Mycoplasma, in vitro agar dilution. Format: cell-based. The conditions noted are these: Mesomycoplasma hyorhinis, ATCC25021, 144 h; Friis broth solidified with 0.9% agarose, 10^3 to 10^5 C.F.U., 6 days at 37°C; read-out: MIC's against M. hyorhinis ATCC 25021. A general note: In agar dilution, organisms are placed on agar that contains the substance at set levels.

Assay [2] has as its system E. coli E1. Nature of the assay: MIC against Veterinary Bacteria, in vitro agar dilution. The conditions noted are these: Escherichia coli, E1, 18 h, read-out: MIC's against E. coli E1.
Description: (§1) The activity of the compounds of the Examples against various veterinarily important bacteria, was assayed in vitro using two-fold serial dilutions in Diagnostic Sensitivity Test Agar inoculated with 10^4 organisms.
The test system of assay [3] is M. bovigenitalium ATCC 14173. Kind of assay: MIC against Mycoplasma, in vitro agar dilution. Type of assay: cell-based. The following applies: 144 h; Friis broth solidified with 0.9% agarose, 10^3 to 10^5 C.F.U., 6 days at 37°C; read-out: MIC's against M. bovigenitalium ATCC 14173.
The test system of assay [4] is M. suipneumoniae UCD 1. Nature of the assay: MIC against Mycoplasma, in vitro agar dilution. Type of assay: cell-based. The conditions noted are these: Mesomycoplasma hyopneumoniae, UCD1, 144 h; Friis broth solidified with 0.9% agarose, 10^3 to 10^5 C.F.U., 6 days at 37°C; read-out: MIC's against M. suipneumoniae UCD 1.
Assay [5] has as its system M. dispar NCTC 10125. Nature of the assay: MIC against Mycoplasma, in vitro agar dilution. Type of assay: cell-based. The conditions noted are these: 144 h; Friis broth solidified with 0.9% agarose, 10^3 to 10^5 C.F.U., 6 days at 37°C; read-out: MIC's against M. dispar NCTC 10125.
For assay [6], the system named is Staph. aureus B4 (pen. resistant). Nature of the assay: MIC against Veterinary Bacteria, in vitro agar dilution. The following applies: Staphylococcus aureus, 18 h, read-out: MIC's against Staph. aureus B4 (pen. resistant).
Description: as §1
The test system of assay [7] is S. dublin S7. The assay is described as above. The conditions noted are these: Salmonella enterica, S7, 18 h, read-out: MIC's against S. dublin S7.
Description: as §1
Assay [8] relates to M. suipneumoniae HK(2). Kind of assay: MIC against Mycoplasma, in vitro agar dilution. The conditions noted are these: Mesomycoplasma hyopneumoniae, 144 h; Friis broth solidified with 0.9% agarose, 10^3 to 10^5 C.F.U., 6 days at 37°C; read-out: MIC's against M. suipneumoniae HK(2). Type of assay: cell-based.
The test system of assay [9] is M. suipneumoniae NCTC 10110. Nature of the assay: MIC against Mycoplasma, in vitro agar dilution. Format: cell-based. The conditions noted are these: Mesomycoplasma hyopneumoniae, NCTC10110, 144 h; Friis broth solidified with 0.9% agarose, 10^3 to 10^5 C.F.U., 6 days at 37°C; read-out: MIC's against M. suipneumoniae NCTC 10110.
Assay [10] concerns Bord. bronchiseptica B08. Nature of the assay: MIC against Veterinary Bacteria, in vitro agar dilution. The following applies: Bordetella bronchiseptica, B08, 18 h, read-out: MIC's against Bord. bronchiseptica B08.
Description: as §1
Assay [11] deals with Staph. aureus Oxford. Described as above. The conditions noted are these: Staphylococcus aureus, 18 h, read-out: MIC's against Staph. aureus Oxford.
Description: as §1
The subject of assay [12] is Strep. uberis SPU1. The description is as above. The following applies: Streptococcus uberis, SPU1, 18 h, read-out: MIC's against Strep. uberis SPU1.
Description: as §1
The test system of assay [13] is M. suipneumoniae PW/C/210. Nature of the assay: MIC against Mycoplasma, in vitro agar dilution. Format: cell-based. The following applies: Mesomycoplasma hyopneumoniae, 144 h; Friis broth solidified with 0.9% agarose, 10^3 to 10^5 C.F.U., 6 days at 37°C; read-out: MIC's against M. suipneumoniae PW/C/210.
Assay [14] relates to Past. haemolytica PA5. Nature of the assay: MIC against Veterinary Bacteria, in vitro agar dilution. The conditions noted are these: Mannheimia haemolytica, PA5, 18 h, read-out: MIC's against Past. haemolytica PA5.
Description: as §1
For assay [15], the system named is Erysipelothrix rhusiopathiae NCTC 8163. Described as above. The following applies: Erysipelothrix rhusiopathiae, NCTC8163, 18 h, read-out: MIC's against Erysipelothrix rhusiopathiae NCTC 8163.
Description: as §1
In assay [16] the test system is M. gallisepticum S6. Kind of assay: MIC against Mycoplasma, in vitro agar dilution. Type of assay: cell-based. The conditions noted are these: Mycoplasmoides gallisepticum, S6, 144 h; Friis broth solidified with 0.9% agarose, 10^3 to 10^5 C.F.U., 6 days at 37°C; read-out: MIC's against M. gallisepticum S6.
The test system of assay [17] is M. suipneumoniae J2206/183^b. Nature of the assay: MIC against Mycoplasma, in vitro agar dilution. Type of assay: cell-based. The conditions noted are these: Mesomycoplasma hyopneumoniae, 144 h; Friis broth solidified with 0.9% agarose, 10^3 to 10^5 C.F.U., 6 days at 37°C; read-out: MIC's against M. suipneumoniae J2206/183^b.
Assay [18] has as its system S. typhimurium S18. Kind of assay: MIC against Veterinary Bacteria, in vitro agar dilution. The following applies: Salmonella enterica, TYPHIMURIUM, 18 h, read-out: MIC's against S. typhimurium S18.
Description: as §1
Assay [19] deals with M. suipneumoniae ATCC 25095. Kind of assay: MIC against Mycoplasma, in vitro agar dilution. Format: cell-based. The conditions noted are these: Mesomycoplasma hyopneumoniae, ATCC25095, 144 h; Friis broth solidified with 0.9% agarose, 10^3 to 10^5 C.F.U., 6 days at 37°C; read-out: MIC's against M. suipneumoniae ATCC 25095.
For assay [20], the system named is Bord. bronchiseptica B09. Kind of assay: MIC against Veterinary Bacteria, in vitro agar dilution. The conditions noted are these: Bordetella bronchiseptica, B09, 18 h, read-out: MIC's against Bord. bronchiseptica B09.
Description: as §1
In assay [21] the test system is Strep. agalactiae SPA1. The description is as above. The conditions noted are these: Streptococcus agalactiae, SPA1, 18 h, read-out: MIC's against Strep. agalactiae SPA1.
Description: as §1
Assay [22] deals with M. suipneumoniae JF 435. Nature of the assay: MIC against Mycoplasma, in vitro agar dilution. Type of assay: cell-based. The conditions noted are these: Mesomycoplasma hyopneumoniae, JF435, 144 h; Friis broth solidified with 0.9% agarose, 10^3 to 10^5 C.F.U., 6 days at 37°C; read-out: MIC's against M. suipneumoniae JF 435.
The subject of assay [23] is M. pneumoniae ATCC 15492. Nature of the assay: MIC against Mycoplasma, in vitro agar dilution. Type of assay: cell-based. The following applies: Mycoplasmoides pneumoniae, ATCC15492, 144 h; Friis broth solidified with 0.9% agarose, 10^3 to 10^5 C.F.U., 6 days at 37°C; read-out: MIC's against M. pneumoniae ATCC 15492.

In brackets after ≈: the same amount, converted by molar mass. Bounds are passed on as bounds.

In the case of `COC(=O)C(C)=C(C)CC1OCC(CC2OC2C(C)C(C)O)C(O)C1O` [Example 2, Methyl 4-[5S-(2S,3S-epoxy-5S-hydroxy-4S-methylhexyl)-3R,4R-dihydroxytetrahydropyran-2S-yl]-2,3-dimethylbut-2(E)-enoate], the MIC is 5 µg/mL (≈ 13.4 µM) in assay [1]; over 80 µg/mL in [2]; 0.5 µg/mL (≈ 1.34 µM) in assay [3]; 10 µg/mL (≈ 26.8 µM) in assay [4]; 1 µg/mL (≈ 2.68 µM) in assay [5]; 5 µg/mL (≈ 13.4 µM) in assay [6]. The MIC in [7] is over 80 µg/mL; in assay [8] it was 10 µg/mL (≈ 26.8 µM); in [9], 5 µg/mL (≈ 13.4 µM); in assay [10], over 80 µg/mL; in assay [11], 5 µg/mL (≈ 13.4 µM); in assay [12], 20 µg/mL (≈ 53.7 µM). Moreover, the MIC in assay [13] is 5 µg/mL (≈ 13.4 µM); in assay [14] it was 40 µg/mL (≈ 107 µM); in assay [15], over 80 µg/mL; in [16] it was over 10 µg/mL; in assay [17] it was 5 µg/mL (≈ 13.4 µM); in assay [18], over 80 µg/mL. In addition, the MIC was 5 µg/mL (≈ 13.4 µM) in assay [19], 40 µg/mL (≈ 107 µM) in assay [20], 80 µg/mL (≈ 215 µM) in [21] and 10 µg/mL (≈ 26.8 µM) in assay [22].

As to `CCOC(=O)C(C)=C(C)CC1OCC(CC2OC2C(C)C(C)O)C(O)C1O` [Example 1, Ethyl 4-[5S-(2S,3S-epoxy-5S-hydroxy-4S-methylhexyl)-3R,4R-dihydroxytetrahydropyran-2S-yl]-2,3-dimethylbut-2(E)-enoate], the MIC in assay [1] was 0.5 µg/mL (≈ 1.29 µM); in assay [2], over 80 µg/mL; in assay [3] it was 0.05 µg/mL (≈ 0.129 µM); in [4], 2.5 µg/mL (≈ 6.47 µM); in assay [5], 0.25 µg/mL (≈ 0.647 µM); in [6], 0.625 µg/mL (≈ 1.62 µM). Moreover, the MIC was over 80 µg/mL in [7]; 1 µg/mL (≈ 2.59 µM) in [8]; 10 µg/mL (≈ 25.9 µM) in assay [23]; 1 µg/mL (≈ 2.59 µM) in assay [9]; over 80 µg/mL in assay [10]; 0.625 µg/mL (≈ 1.62 µM) in assay [11]. The MIC is 1.25 µg/mL (≈ 3.23 µM) in assay [12]; 0.5 µg/mL (≈ 1.29 µM) in assay [13]; 20 µg/mL (≈ 51.7 µM) in assay [14]; 80 µg/mL (≈ 207 µM) in [15]; over 10 µg/mL in [16]; 2.5 µg/mL (≈ 6.47 µM) in [17]. In addition, the MIC in [18] is over 80 µg/mL; in [19], 1 µg/mL (≈ 2.59 µM); in assay [20], 80 µg/mL (≈ 207 µM); in [21], 5 µg/mL (≈ 12.9 µM); in assay [22], 1 µg/mL (≈ 2.59 µM).

In the case of `CC(CC1OCC(CC2OC2C(C)C(C)O)C(O)C1O)=C(C)C(=O)O` [Example 4, Sodium 4-[5S-(2S, 35-epoxy-5S-hydroxy-4S-methylhexyl)-3R,4R-dihydroxytetrahydropyran-2S-yl]-2,3-dimethylbut-2(E)-enoate], the MIC was 0.1 µg/mL in assay [1]; over 80 µg/mL in assay [2]; 0.05 µg/mL in assay [3]; 0.25 µg/mL in assay [4]; 0.05 µg/mL in assay [5]; 1.25 µg/mL in assay [6]. Moreover, the MIC is over 80 µg/mL in assay [7]; 0.25 µg/mL in [8]; 5 µg/mL in assay [23]; 0.25 µg/mL in assay [9]; over 80 µg/mL in [10]; 1.25 µg/mL in [11]. Besides, the MIC in assay [12] stood at 0.156 µg/mL; in assay [13], 0.1 µg/mL; in assay [14] it was 10 µg/mL; in assay [15], 80 µg/mL; in assay [16] it was 5 µg/mL; in assay [17] it was 0.25 µg/mL. Besides, the MIC was over 80 µg/mL in assay [18]; 0.25 µg/mL in assay [19]; 40 µg/mL in assay [20]; 1.25 µg/mL in assay [21]; 0.25 µg/mL in assay [22].

As to `CC(CC1OCC(CC2OC2C(C)C(C)O)C(O)C1O)=C(C)C(=O)OCc1cccc([N+](=O)[O-])c1` [Example 3, m-Nitrobenzyl 4-[5S-(2S,3S-epoxy-5S-hydroxy-4S-methylhexyl)-3R,4R-dihydroxytetrahydropyran-2S-yl]-2,3-di-methylbut-2(E)-enoate], the MIC in assay [1] is 0.025 µg/mL (≈ 0.0507 µM); in assay [2], over 80 µg/mL; in [3] it was 0.025 µg/mL (≈ 0.0507 µM); in [4], 0.05 µg/mL (≈ 0.101 µM); in assay [5], under 0.01 µg/mL; in assay [6], 1.25 µg/mL (≈ 2.53 µM). Also, the MIC in [7] is over 80 µg/mL; in assay [8], 0.1 µg/mL (≈ 0.203 µM); in assay [23], 2.5 µg/mL (≈ 5.07 µM); in assay [9], 0.05 µg/mL (≈ 0.101 µM); in assay [10], 80 µg/mL (≈ 162 µM); in assay [11] it was 1.25 µg/mL (≈ 2.53 µM). The MIC in assay [12] was 0.156 µg/mL (≈ 0.316 µM); in assay [13] it was 0.025 µg/mL (≈ 0.0507 µM); in assay [14] it was 10 µg/mL (≈ 20.3 µM); in assay [15] it was 40 µg/mL (≈ 81 µM); in assay [16], 5 µg/mL (≈ 10.1 µM); in assay [17], 0.1 µg/mL (≈ 0.203 µM). For the same compound, the MIC was over 80 µg/mL in assay [18]; 0.025 µg/mL (≈ 0.0507 µM) in assay [19]; 80 µg/mL (≈ 162 µM) in assay [20]; 1.25 µg/mL (≈ 2.53 µM) in assay [21]; 0.1 µg/mL (≈ 0.203 µM) in assay [22].

The values are drawn from patent EP0090603A2, “Antibacterial compounds” (BEECHAM GROUP PLC, priority 1982, dated 1983).
